According to BindingDB's records for doi:10.1016/j.bmc.2006.07.028 (University of Florence, 2006):

Assays:
[1] = target: T1, Macrophage metalloelastase (Homo sapiens, UniProt P39900); assay: Dissociation Constants (KD) Measurements and Enzyme Inhibition Assay (IC50); details: pH 7; 25 °C
Procedure: The NMR experiments were performed to determine the binding affinity (KD) for the MMP-12 catalytic domain. The alteration of the chemical shifts induced on 2D 1H-15N HSQC upon the titration with the test compound was analyzed. The fit of the experimental data as a function of ligand concentration provided dissociation constant. The inhibition potency (IC50) was measured by fluorescent enzymatic assays. The compounds were evaluated for their ability to inhibit the hydrolysis of fluorescence-quenched peptide substrate. […] Fitting of hydrolysis rate as a function of inhibitor concentration provided IC50.

[2] = target: T1, Macrophage metalloelastase; assay: Dissociation Constants (KD) Measurements; details: pH 7.2; 25 °C
Procedure: The NMR experiments were performed to determine the binding affinity (KD) for the MMP-12 catalytic domain. The alteration of the chemical shifts induced on 2D 1H-15N HSQC upon the titration with the test compound was analyzed. The fit of the experimental data as a function of ligand concentration provided dissociation constant.

Collagenase 3 = Collagenase 3 (Homo sapiens, UniProt P45452); assay: Inhibition Potency Measurements; details: pH 7; 25 °C
Procedure: (§1) The inhibition potency (IC50) was measured by fluorescent enzymatic assays. The compounds were evaluated for their ability to inhibit the hydrolysis of fluorescence-quenched peptide substrate. […] Fitting of hydrolysis rate as a function of inhibitor concentration provided IC50.

Interstitial collagenase = target: T2, Interstitial collagenase (Homo sapiens, UniProt P03956); assay: Inhibition Potency Measurements; details: pH 7; 25 °C
T2 sequence (P03956 whole entry): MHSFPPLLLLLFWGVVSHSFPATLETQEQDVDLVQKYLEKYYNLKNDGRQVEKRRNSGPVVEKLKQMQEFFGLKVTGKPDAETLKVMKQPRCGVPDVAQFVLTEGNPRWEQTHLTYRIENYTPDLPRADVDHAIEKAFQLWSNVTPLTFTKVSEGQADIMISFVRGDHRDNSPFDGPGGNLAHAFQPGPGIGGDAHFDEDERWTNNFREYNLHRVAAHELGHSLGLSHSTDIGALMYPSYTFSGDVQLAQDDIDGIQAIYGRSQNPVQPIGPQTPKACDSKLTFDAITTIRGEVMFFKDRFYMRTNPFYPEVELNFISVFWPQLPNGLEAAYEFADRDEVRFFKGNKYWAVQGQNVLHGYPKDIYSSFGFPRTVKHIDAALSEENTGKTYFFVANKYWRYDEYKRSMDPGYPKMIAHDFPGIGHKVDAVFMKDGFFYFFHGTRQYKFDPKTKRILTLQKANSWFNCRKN
Procedure: as §1

Matrilysin = target: T3, Matrilysin (Homo sapiens, UniProt P09237); assay: Inhibition Potency Measurements; details: pH 7; 25 °C
T3 sequence (P09237 whole entry): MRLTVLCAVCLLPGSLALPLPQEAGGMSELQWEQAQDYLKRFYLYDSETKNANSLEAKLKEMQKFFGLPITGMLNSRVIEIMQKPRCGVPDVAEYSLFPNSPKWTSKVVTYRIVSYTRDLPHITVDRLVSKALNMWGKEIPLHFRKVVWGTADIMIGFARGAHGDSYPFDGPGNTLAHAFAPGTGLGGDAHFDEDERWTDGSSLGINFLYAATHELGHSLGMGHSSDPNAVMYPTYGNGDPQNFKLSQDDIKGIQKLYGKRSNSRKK
Procedure: as §1

Neutrophil collagenase = Neutrophil collagenase (Homo sapiens, UniProt P22894); assay: Inhibition Potency Measurements; details: pH 7; 25 °C
Chain of Neutrophil collagenase (P22894 whole entry): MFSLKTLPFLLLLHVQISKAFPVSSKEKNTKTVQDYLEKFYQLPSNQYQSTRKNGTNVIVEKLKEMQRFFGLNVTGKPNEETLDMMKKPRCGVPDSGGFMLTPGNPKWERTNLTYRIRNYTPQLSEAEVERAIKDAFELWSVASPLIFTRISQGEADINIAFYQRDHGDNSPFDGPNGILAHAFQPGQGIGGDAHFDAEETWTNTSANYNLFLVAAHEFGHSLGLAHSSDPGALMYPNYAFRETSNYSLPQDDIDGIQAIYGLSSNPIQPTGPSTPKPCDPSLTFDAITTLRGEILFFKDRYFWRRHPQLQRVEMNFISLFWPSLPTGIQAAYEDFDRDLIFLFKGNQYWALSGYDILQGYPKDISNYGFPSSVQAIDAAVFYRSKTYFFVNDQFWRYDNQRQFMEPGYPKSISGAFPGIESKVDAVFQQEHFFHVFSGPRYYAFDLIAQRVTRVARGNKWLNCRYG
Procedure: as §1

Stromelysin-2 = Stromelysin-2 (Homo sapiens, UniProt P09238); assay: Inhibition Potency Measurements; details: pH 7; 25 °C
Chain of Stromelysin-2 (P09238 whole entry): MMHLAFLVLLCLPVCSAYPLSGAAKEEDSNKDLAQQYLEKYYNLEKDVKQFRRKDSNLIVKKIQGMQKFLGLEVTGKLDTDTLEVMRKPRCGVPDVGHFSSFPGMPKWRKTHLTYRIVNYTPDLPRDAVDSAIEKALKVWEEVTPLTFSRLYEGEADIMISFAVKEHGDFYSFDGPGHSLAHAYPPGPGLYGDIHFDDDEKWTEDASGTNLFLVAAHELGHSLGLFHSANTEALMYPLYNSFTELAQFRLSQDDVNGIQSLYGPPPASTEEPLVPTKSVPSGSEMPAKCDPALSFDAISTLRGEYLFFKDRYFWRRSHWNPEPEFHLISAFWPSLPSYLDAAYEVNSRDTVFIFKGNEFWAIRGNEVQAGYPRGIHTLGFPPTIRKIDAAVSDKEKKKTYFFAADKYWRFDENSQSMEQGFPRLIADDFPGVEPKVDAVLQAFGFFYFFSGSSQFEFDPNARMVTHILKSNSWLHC
Procedure: as §1

T1 sequence (P39900 whole entry, the tested form may be a part): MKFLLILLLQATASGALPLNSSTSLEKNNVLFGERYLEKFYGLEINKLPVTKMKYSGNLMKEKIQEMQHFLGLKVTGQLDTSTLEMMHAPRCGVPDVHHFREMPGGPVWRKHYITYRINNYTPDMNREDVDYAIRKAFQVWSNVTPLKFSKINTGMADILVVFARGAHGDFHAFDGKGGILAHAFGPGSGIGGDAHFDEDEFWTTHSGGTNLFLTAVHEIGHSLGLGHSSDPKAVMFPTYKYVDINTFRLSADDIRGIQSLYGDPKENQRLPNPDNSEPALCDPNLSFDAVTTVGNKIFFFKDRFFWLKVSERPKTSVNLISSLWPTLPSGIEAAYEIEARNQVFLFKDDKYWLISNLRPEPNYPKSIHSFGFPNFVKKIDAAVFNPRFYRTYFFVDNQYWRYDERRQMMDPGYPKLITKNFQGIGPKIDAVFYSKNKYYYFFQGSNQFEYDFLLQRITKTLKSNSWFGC

SMILES | IC50 [1] [µM] | Kd [1] [µM] | Kd [2] [µM] | also measured
O=C(O)[C@@H]1O[C@H]2CN(Cc3ccc(-c4ccccc4)cc3)C(=O)[C@@H]1O2 [(1R,5S,7R)-2-oxo-3-[(4-phenylphenyl)methyl]-6,8-dioxa-3-azabicyclo[3.2.1]octane-7-carboxylic acid] | 954 | > 1000 | – | –
O=C(O)[C@@H]1O[C@H]2CN(Cc3ccccc3)C(=O)[C@@H]1O2 [(1R,5S,7R)-3-benzyl-2-oxo-6,8-dioxa-3-azabicyclo[3.2.1]octane-7-carboxylic acid] | – | – | > 10000 | –
O=C(NO)[C@@H]1O[C@H]2CN(Cc3ccccc3)C(=O)[C@@H]1O2 [(1R,5S,7R)-3-benzyl-N-hydroxy-2-oxo-6,8-dioxa-3-azabicyclo[3.2.1]octane-7-carboxamide] | – | – | > 10000 | –
O=C(NO)[C@@H]1O[C@H]2CN(Cc3ccc(-c4ccccc4)cc3)C(=O)[C@@H]1O2 [(1R,5S,7R)-N-hydroxy-2-oxo-3-[(4-phenylphenyl)methyl]-6,8-dioxa-3-azabicyclo[3.2.1]octane-7-carboxamide] | 425 | > 500 | – | –
O=C(NCc1ccc(-c2ccccc2)cc1)[C@@H]1O[C@H]2CN(C(=O)NO)C[C@@H]1O2 [(1S,5S,7R)-3-N-hydroxy-7-N-[(4-phenylphenyl)methyl]-6,8-dioxa-3-azabicyclo[3.2.1]octane-3,7-dicarboxamide] | – | – | – | IC50 (Collagenase 3): 778 µM; IC50 (Interstitial collagenase): 1180 µM; IC50 (Matrilysin): 1510 µM; IC50 (Neutrophil collagenase): 513 µM; IC50 (Stromelysin-2): 865 µM
O=C(O)[C@@H]1O[C@H]2CN(Cc3ccc(-c4ccccc4)cc3)C[C@@H]1O2 [(1S,5S,7R)-3-[(4-phenylphenyl)methyl]-6,8-dioxa-3-azabicyclo[3.2.1]octane-7-carboxylic acid] | 835 | > 1000 | – | –
O=C(O)[C@@H]1O[C@H]2CN(Cc3ccccc3)C[C@@H]1O2 [(1S,5S,7R)-3-benzyl-6,8-dioxa-3-azabicyclo[3.2.1]octane-7-carboxylic acid] | – | – | > 10000 | –
O=C(NO)[C@@H]1O[C@H]2CN(Cc3ccc(-c4ccccc4)cc3)C[C@@H]1O2 [(1S,5S,7R)-N-hydroxy-3-[(4-phenylphenyl)methyl]-6,8-dioxa-3-azabicyclo[3.2.1]octane-7-carboxamide] | 399 | > 500 | – | –
CCOC(=O)C1CCN(C(=O)NO)CC1 [ethyl 1-(hydroxycarbamoyl)piperidine-4-carboxylate] | – | – | 3400 | –
